“And” between values parts separate entries of the source, which are not always exact repeats. Equal entries are not always repeated. Square brackets hold non-standard residues; d marks the D form. Ends that are not written are not given here. Peptide text beside a SMILES is read from it. Phe(3,4-Cl2) = N[C@@H](Cc1ccc(Cl)c(Cl)c1)C(=O)O; Phe(4-Br) = N[C@@H](Cc1ccc(Br)cc1)C(=O)O; Phe(4-Cl) = N[C@@H](Cc1ccc(Cl)cc1)C(=O)O; Phe(4-Me) = Cc1ccc(C[C@H](N)C(=O)O)cc1; hCha = N[C@@H](CCC1CCCCC1)C(=O)O; tBuAla = CC(C)(C)C[C@H](N)C(=O)O; Cha = N[C@@H](CC1CCCCC1)C(=O)O; hLeu = CC(C)CC[C@H](N)C(=O)O
What was measured:
[1] = molecular target: T1, E. coli β clamp (Escherichia coli, UniProt P0A988); assay: SPR competition assay: inhibition of P1-β interaction by challenging peptides; assay type: binding; conditions: for ΔG: ΔG = −RT ln Ki; for Ki (10^6 M^−1): Ki = (1 + KA[β])/IC50;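 on all read-outs here: SPR responses corrected for background, then fitted with a 1:1 Langmuir binding model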
T1 construct: made in house; host or cells: E. coli BL21 (β); P1 by solid-phase synthesis
Experimental: SPR experiments were performed on a Biacore® 3000. […] After subtraction of the background response, the data were fit to the 1:1 Langmuir model using BIAevaluation (Biacore™). […] IC50 values for each challenging peptide were determined by plotting the concentration of peptide against the percentage of binding inhibition. The IC50 value of each peptide was used to calculate Ki (Ki=(1+KA[β])/IC50) which measures the affinity of the challenging peptide for β in the competition assay, and AG was derived from Ki (ΔG=RT ln Ki).

[2] = molecular target: T2, β ring (Escherichia coli, UniProt P0A988); assay: Isothermal titration calorimetry (ITC) of peptides into β ring solution; assay type: binding, E. coli; conditions: for N: number of binding sites per β monomer / ΔG / Kd / ΔS (cal/mol/deg): ITC; for ΔG: ΔG = ΔH-TΔS; for ΔΔG (Kcal/mol) = ΔGj − ΔGi, reference i = P7: compared to P7; for ΔΔG (Kcal/mol) = ΔGj − ΔGi, reference i = P11: compared to P11; for ΔΔG (Kcal/mol) = ΔGj − ΔGi, reference i = P13: compared to P13
T2 construct: made in house; host or cells: E. coli BL21
Experimental: ITC was performed by using a ITC200 microcalorimeter from MicroCal. Peptides (400 μM) were titrated in sequential injections (2 μl each) into a β ring solution (300 μl, 20 or 30 μM) at 25° C. Data were corrected from control experiments where peptides were injected in buffer solution (Hepes 10 mM pH 7.4, NaCl 0.15M, EDTA 3 mM, P20 0.005%). Data analysis was performed with Origin 7.0 software.
Target sequence in this assay (P0A988 whole entry): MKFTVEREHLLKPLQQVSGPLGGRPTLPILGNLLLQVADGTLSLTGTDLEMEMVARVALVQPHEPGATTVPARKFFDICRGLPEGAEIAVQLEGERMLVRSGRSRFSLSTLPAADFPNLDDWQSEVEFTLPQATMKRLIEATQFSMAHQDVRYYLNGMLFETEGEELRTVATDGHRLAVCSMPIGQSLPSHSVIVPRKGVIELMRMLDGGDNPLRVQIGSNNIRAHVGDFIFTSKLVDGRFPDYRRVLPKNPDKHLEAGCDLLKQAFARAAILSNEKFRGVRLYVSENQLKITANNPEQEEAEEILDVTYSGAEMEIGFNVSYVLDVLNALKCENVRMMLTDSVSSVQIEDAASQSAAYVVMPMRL

[3] = molecular target: T2, β ring; assay: IC50 SPR (μM)
Excerpt: Table printed on a drawing sheet, Figure 4
Head of the field: IC50 SPR (μM)
The patent's description of the figure: FIG. 4: Polymerase competition assay. […] Grey: biochemical assay, black: SPR assay. P15 sequence is Ac-RQLVLF, (SEQ ID No: 15), Scr: scrambled peptide: Ac-ChaFQLD, (SEQ ID No: 33).
First copying reader's note: The biochemical assay row is printed with decimal commas and the SPR row with decimal points.
Where the first naming reader finds the target: passage: the relative affinity of two compounds for the β ring is not dependent from the technique used for measuring said affinities (FIG. 4B)
Target sequence in this assay (P0A988 whole entry, looked up): as the sequence (P0A988 whole entry) above

[4] = peptide 400 μM, β 20 or 30 μM, 25° C
[5] = IC50 (μM), SPR, inhibition of binding of β ring (0.25 μM) to immobilized P1
[6] = Kd (nM), peptide 400 μM, β 20 or 30 μM, 25° C

T1 sequence (P0A988 whole entry): as above

Row | Compound | ΔG ([1]; SPR) | N: number of binding sites per β monomer [2, 4] | IC50 [1, 5] | Ki (10^6 M^−1) ([1]; SPR) | further results
1 | CC(C)C[C@H](NC(=O)[C@H](CC(=O)O)NC(=O)[C@H](CC(C)C)NC(=O)[C@@H](N)CCC(N)=O)C(=O)N[C@@H](Cc1ccccc1)C(=O)O [Peptide P5, H-Gln-Leu-Asp-Leu-Phe-OH] | -6.87 kcal/mol |  |  |  | 
2 | CC(=O)N[C@@H](CCC(N)=O)C(=O)N[C@@H](CC(C)C)C(=O)N[C@@H](CC(=O)O)C(=O)N[C@@H](CC(C)C)C(=O)N[C@@H](Cc1ccccc1)C(=O)O [Peptide P6, Ac-Gln-Leu-Asp-Leu-Phe-OH] | -8.22 kcal/mol | 1.11 and 1.14 |  |  | 
3 | CC(=O)N[C@@H](CCC(N)=O)C(=O)N[C@@H](CC1CCCCC1)C(=O)N[C@@H](CC(=O)O)C(=O)N[C@@H](CC(C)C)C(=O)N[C@@H](Cc1ccccc1)C(=O)O [Peptide P7, Ac-Gln-Cha-Asp-Leu-Phe-OH] (Ac-Q[Cha]DLF-OH) | -9.42 kcal/mol | 0.74 and 0.76 | 0.17 µM | 8.01 10^6 M^−1 | ΔG ([2]; 25° C): -8.9 kcal/mol; ΔΔG (Kcal/mol) = ΔGj − ΔGi, reference i = P6 ([2]; from ITC data, compared to P6): -0.66 kcal/mol; Ki [1]: 170 nM; fold decrease in affinity compared to P14 ([1]; SPR): 2 fold; fold increase in interaction/affinity compared to P6 ([1]; SPR): 6 fold
4 | CC(=O)N[C@@H](CCC(N)=O)C(=O)N[C@@H](CCC1CCCCC1)C(=O)N[C@@H](CC(=O)O)C(=O)N[C@@H](CC(C)C)C(=O)N[C@@H](Cc1ccccc1)C(=O)O [Peptide P8, Ac-Gln-hCha-Asp-Leu-Phe-OH] (Ac-Q[hCha]DLF-OH) | -5.74 kcal/mol |  | 82.8 µM | 16.4 10^6 M^−1 | 
5 | CC(=O)N[C@@H](CCC(N)=O)C(=O)N[C@@H](CCC(C)C)C(=O)N[C@@H](CC(=O)O)C(=O)N[C@@H](CC(C)C)C(=O)N[C@@H](Cc1ccccc1)C(=O)O [Peptide P9, Ac-Gln-Hol-Asp-Leu-Phe-OH] | -8.54 kcal/mol |  | 0.74 µM | 1.84 10^6 M^−1 | 
6 | CC(=O)N[C@@H](CCC(N)=O)C(=O)N[C@@H](CC(C)(C)C)C(=O)N[C@@H](CC(=O)O)C(=O)N[C@@H](CC(C)C)C(=O)N[C@@H](Cc1ccccc1)C(=O)O [Peptide P10, Ac-Gln-NptGly-Asp-Leu-Phe-OH] (Ac-Q[tBuAla]DLF-OH) | -8.36 kcal/mol |  | 0.99 µM | 1.36 10^6 M^−1 | 
7 | CC(=O)N[C@@H](CCC(N)=O)C(=O)N[C@@H](CC1CCCCC1)C(=O)N[C@@H](CC(=O)O)C(=O)N[C@@H](CC(C)C)C(=O)N[C@@H](Cc1ccc(C)cc1)C(=O)O [Peptide P11, Ac-Gln-Cha-Asp-Leu-pMePhe-OH] (Ac-Q[Cha]DL[Phe(4-Me)]-OH) | -9.44 kcal/mol | 0.95 | 0.26 µM | 8.43 10^6 M^−1 | ΔG ([2]; 25° C): -8.6 kcal/mol; ΔΔG (Kcal/mol) = ΔGj − ΔGi, reference i = P7 ([2]; from ITC data): +0.25 Kcal/mol
8 | CC(=O)N[C@@H](CCC(N)=O)C(=O)N[C@@H](CC1CCCCC1)C(=O)N[C@@H](CC(=O)O)C(=O)N[C@@H](CC(C)C)C(=O)N[C@@H](Cc1ccc(Cl)cc1)C(=O)O [Peptide P12, Ac-Gln-Cha-Asp-Leu-pClPhe-OH] (Ac-Q[Cha]DL[Phe(4-Cl)]-OH) | -9.73 kcal/mol | 1.02 and 1.06 | 0.16 µM | 13.7 10^6 M^−1 | ΔΔG (Kcal/mol) = ΔGj − ΔGi, reference i = P7 ([2]; from ITC data): -0.6 kcal/mol; ΔΔG (Kcal/mol) = ΔGj − ΔGi, reference i = P11 ([2]; from ITC data): -0.85 kcal/mol; ΔΔG (Kcal/mol) = ΔGj − ΔGi, reference i = P13 ([2]; from ITC data): -0.32 kcal/mol
9 | CC(=O)N[C@@H](CCC(N)=O)C(=O)N[C@@H](CC1CCCCC1)C(=O)N[C@@H](CC(=O)O)C(=O)N[C@@H](CC(C)C)C(=O)N[C@@H](Cc1ccc(Br)cc1)C(=O)O [Peptide P13, Ac-Gln-Cha-Asp-Leu-pBrPhe-OH] (Ac-Q[Cha]DL[Phe(4-Br)]-OH) | -9.71 kcal/mol | 0.85 and 0.83 | 0.096 µM | 13.49 10^6 M^−1 | ΔΔG (Kcal/mol) = ΔGj − ΔGi, reference i = P7 ([2]; from ITC data): -0.28 kcal/mol; ΔΔG (Kcal/mol) = ΔGj − ΔGi, reference i = P11 ([2]; from ITC data): -0.53 kcal/mol
10 | CC(=O)N[C@@H](CCC(N)=O)C(=O)N[C@@H](CC1CCCCC1)C(=O)N[C@@H](CC(=O)O)C(=O)N[C@@H](CC(C)C)C(=O)N[C@@H](Cc1ccc(Cl)c(Cl)c1)C(=O)O [Peptide P14, Ac-Gln-Cha-Asp-Leu-(3,4-di-Cl)Phe-OH] (Ac-Q[Cha]DL[Phe(3,4-Cl2)]-OH) | -9.85 kcal/mol | 0.91 and 0.90 | 0.077 µM | 17 10^6 M^−1 | Kd [2, 6]: ~60 nM; ΔΔG (Kcal/mol) = ΔGj − ΔGi, reference i = P7 ([2]; from ITC data): -0.8 kcal/mol; ΔΔG (Kcal/mol) = ΔGj − ΔGi, reference i = P11 ([2]; from ITC data): -1.05 kcal/mol; ΔΔG (Kcal/mol) = ΔGj − ΔGi, reference i = P12 ([2]; from ITC data, compared to P12): -0.2 kcal/mol; ΔΔG (Kcal/mol) = ΔGj − ΔGi, reference i = P13 ([2]; from ITC data): -0.52 kcal/mol; fold increase compared to the full PolIV enzyme [1]: 4 fold; IC50 ([1]; IC50 SPR (nM), SPR): 0.07 µM; fold increase in interaction/affinity compared to P6 ([1]; SPR): 15 fold; fold increase compared to P1 ([1]; SPR IC50): 115 fold
11 | CC(=O)N[C@@H](CCCNC(=N)N)C(=O)N[C@@H](CCC(N)=O)C(=O)N[C@@H](CC1CCCCC1)C(=O)N[C@@H](CCCNC(=N)N)C(=O)N[C@@H](CC(C)C)C(=O)N[C@@H](Cc1ccccc1)C(=O)O [Peptide P14-7, Ac R Q Cha R L F] (Ac-RQ[Cha]RLF-OH; N-terminus and C-terminus assumed) |  |  |  |  | affinity ratio compared to P7 ([1]; SPR): at least 50
12 | CC(=O)N[C@@H](CCCNC(=N)N)C(=O)N[C@@H](CCC(N)=O)C(=O)N[C@@H](CC1CCCCC1)C(=O)N[C@@H](CCCCN)C(=O)N[C@@H](CC(C)C)C(=O)N[C@@H](Cc1ccccc1)C(=O)O [Peptide P14-8, Ac R Q Cha K L F] (Ac-RQ[Cha]KLF-OH; C-terminus assumed) |  |  |  |  | Ki [1]: 904 nM; affinity for the target ([1]; SPR): 1 µM; fold decrease in affinity compared to P14 ([1]; SPR): 10 fold
13 | CC(=O)N[C@@H](CCC(N)=O)C(=O)N[C@@H](CC1CCCCC1)C(=O)N[C@@H](CC(=O)O)C(=O)N[C@@H](CCC(C)C)C(=O)N[C@@H](Cc1ccccc1)C(=O)O [Peptide P16, Ac Q Cha D hLeu F] (Ac-Q[Cha]D[hLeu]F-OH; C-terminus assumed) |  |  | 0.23 µM |  | 
14 | CC(=O)N[C@@H](CCC(N)=O)C(=O)N[C@@H](CC1CCCCC1)C(=O)N[C@@H](CC(=O)O)C(=O)N[C@@H](CC1CCCCC1)C(=O)N[C@@H](Cc1ccccc1)C(=O)O [Peptide P17, Ac Q Cha D Cha F] (Ac-Q[Cha]D[Cha]F-OH; C-terminus assumed) |  |  | 0.31 µM |  | 
15 | CC(=O)N[C@@H](CCC(N)=O)C(=O)N[C@@H](CC1CCCCC1)C(=O)N[C@@H](CC(=O)O)C(=O)N[C@@H](CCC1CCCCC1)C(=O)N[C@@H](Cc1ccccc1)C(=O)O [Peptide P18, Ac Q Cha D hCha F] (Ac-Q[Cha]D[hCha]F-OH; C-terminus assumed) |  |  | 0.72 µM |  | 
16 | CC(=O)N[C@@H](CCC(N)=O)C(=O)N[C@@H](CC1CCCCC1)C(=O)N[C@@H](CC(=O)O)C(=O)N[C@@H](CC(C)(C)C)C(=O)N[C@@H](Cc1ccccc1)C(=O)O [Peptide P19, Ac Q ChaD NptGly F] (Ac-Q[Cha]D[tBuAla]F-OH; C-terminus assumed) |  |  | 5.63 µM |  | 
17 | CC(=O)N[C@@H](CCC(N)=O)C(=O)N[C@@H](CC1CCCCC1)C(=O)N[C@@H](CC(=O)O)C(=O)N[C@@H](CC(C)C)C(=O)N[C@@H](CC1CCCCC1)C(=O)O [Peptide P20, Ac-Q Cha DL Cha] (Ac-Q[Cha]DL[Cha]-OH; C-terminus assumed) |  |  | 0.41 µM |  | 
18 | CC(=O)N[C@@H](CCC(N)=O)C(=O)N[C@@H](CC1CCCCC1)C(=O)N[C@@H](CC(=O)O)C(=O)N[C@@H](CC(C)C)C(=O)N[C@@H](Cc1c[nH]c2ccccc12)C(=O)O [Peptide P21, Ac-Q Cha DLW] (Ac-Q[Cha]DLW-OH; C-terminus assumed) |  |  | 0.64 µM |  | 
19 | Ac-RQLVLF [Peptide P15, Ac-RQLVLF] |  |  |  |  | IC50 [3]: 1910 nM
20 | H-RQLVFL-OH [Peptide P4, H-Arg-Gln-Leu-Val-Phe-Leu-OH] |  |  | 256 µM |  | 
21 | H-RQLVLF-OH [Peptide P3, H-Arg-Gln-Leu-Val-Leu-Phe-OH] | -7.04 kcal/mol | 1.54 and 1.45 | 8.62 µM | 0.15 10^6 M^−1 | ΔS (cal/mol/deg) ([2]; 25° C): 6.05 cal/mol/deg and 6.6 cal/mol/deg; Kd [2, 6]: 2820 nM and 2320 nM
22 | H-RQLVLGL-OH [Peptide P1, H-Arg-Gln-Leu-Val-Leu-Gly-Leu-OH, reference compound] | -7.06 kcal/mol | 1.33 and 1.31 | 8.85 µM | 0.15 10^6 M^−1 | ΔS (cal/mol/deg) ([2]; 25° C): 12.8 cal/mol/deg and 7.6 cal/mol/deg; Kd ([2]; affinity (ITC)): 1000 to 2000 nM; fold less efficient binding to the ring compared to the whole polymerase PolIV ([1]; SPR): 30 fold
23 | H-RQLVLL-OH [Peptide P2, H-Arg-Gln-Leu-Val-Leu-Leu-OH] | -6.54 kcal/mol |  | 21.5 µM | 0.0063 10^6 M^−1 | 

From patent US9133240B2, “Compounds binding to the bacterial beta ring” (Centre National de la Recherche Scientifique, priority 2011, dated 2015)
